One compound from patent US20130045952A1, “ABA Receptor Agonists for Increased Plant Stress Resistance” (Van Andel Research Institute, priority 2011, published 2013) can be followed below.

In assay [1] the test system is PYL4 / PP2Cs (HAB1, ABI1, ABI2). In words: In vitro PYL4-PP2C interaction. As to conditions: purified proteins in vitro. The format is biochemical. As to the method:
To determine the biochemical basis of these observations, we used purified proteins of PYR1 and PYL1 to PYL6 to measure their interactions with three PP2Cs, HAB1, ABI1, and ABI2, in vitro. […] In phosphatase assays, pyrabactin promoted PYR1, PYL1, PYL3, PYL5, and PYL6, but not PYL2 and PYL4, to inhibit all three PP2Cs.
(§1) Mutant proteins were expressed as H6GST-fusion proteins and purified by glutathione sepharose chromatography. Protein-protein interactions were determined by luminescence proximity AlphaScreen assay. Biotinylated PP2C proteins for the luminescence proximity assay were generated by in vivo biotinylation of avitag-PP2C fusion proteins. PP2C phosphatase activity was measured by phosphate release from a SnRK2.6 phosphoprotein.
Interactions between PYR/PYL and PP2Cs were assessed by luminescence-proximity AlphaScreen technology (Perkin Elmer). Briefly, biotinylated PP2Cs were attached to streptavidin-coated donor beads, and H6-tagged PYR/PYL receptors were attached to nickel-chelated acceptor beads. The donor and acceptor beads were brought into proximity by the interactions between PYR/PYLs and PP2Cs, which were measured with and without ligands. When excited by a laser beam of 680 nm, the donor beam emits singlet oxygen that activates thioxene derivatives in the acceptor beads, which releases photons of 520-620 nm as the binding signal. […]

The next assay concerns the target T1, PYL1 I137V (Arabidopsis thaliana, UniProt Q8VZS8, I137V).
T1 construct: PYL1 (residues 36-211), PYL2 (residues 14-188), and HAB1 (residues 172-511) were prepared as recombinant proteins in E. coli; made in house; host or cells: E. coli (stated for PYL1 in general)
As to the kind of experiment: PP2C interaction of mutant PYL1 I137V receptors. Format: biochemical. As to conditions: mutation of PYL1 I137 to valine; also in PYL1 A190V or V193I context. The procedure:
One key question is why pyrabactin adopts different conformations between PYL1 and PYL2. The ligand binding pockets of PYL2 and PYL1 only differ in three residues (PYL2/PYL1: V114/1137, V166/A190, and V170/1194). […] In contrast, the V114/1137 change in PYL1 collides with the naphthalene ring of pyrabactin in the PYL2 conformation (C—C distance of 2.2 Å) and forces pyrabactin to flip by 180°. […] Due to the very weak pyrabactin agonist activity in wildtype PYL1, this change is most clearly seen in the context of two mutant PYL1 receptors, in which residues A190 and V193 from helix 3 were exchanged against larger side chains that stabilize the binding of pyrabactin.
as §1
Site-directed mutagenesis was carried out using the QuickChange method (Stratagene). Mutations and all plasmid constructs were confirmed by sequencing.

SMILES strings stand for the structures.

T1 sequence (Q8VZS8 36-211 I137V): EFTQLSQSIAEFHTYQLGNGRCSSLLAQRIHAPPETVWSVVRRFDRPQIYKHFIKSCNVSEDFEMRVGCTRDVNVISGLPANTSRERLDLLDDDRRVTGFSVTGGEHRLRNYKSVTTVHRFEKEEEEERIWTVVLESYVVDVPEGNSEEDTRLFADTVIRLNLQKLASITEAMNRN

Regarding `O=S(=O)(NCc1ccccn1)c1ccc(Br)c2ccccc12` [Pyrabactin, pyrabactin], the “Promotion of PYL4 interaction with the three PP2Cs” value in assay [1] is “promoted interaction”. At PYL1 I137V, the “Response of mutant PYL1 I137V receptor” value was “pyrabactin-inhibited receptor”.
